{
  "source": "patent EP4310070A1",
  "about": "“USE OF TRANS AMANTADINE DERIVATIVE OR SALT THEREOF” (Chengdu Shibeikang Biomedical Technology Co., Ltd., priority 2021, dated 2022)",
  "key": {"[1]": {"tested_on": "tracheal phenol red secretion in mice", "assay": "phenol red expectoration test in mice", "format": "in vivo", "settings": "colorimetric measurement at 546nm; 30 mg/kg in terms of free base via tail vein 2 times in a row; x ± s, n=12; control 0.095±0.022; hydrochloride", "procedure": "Experimental method: 60 mice of both sexes were used and randomly divided into a control (normal saline) group, a Formula I compound group (30 mg/kg, in terms of free base), a Formula V compound group (30 mg/kg, in terms of free base), a Comparative Example group (30 mg/kg, in terms of free base) and ambroxol hydrochloride (30 mg/kg, in terms of free base), 12 rats in each group; the respective medicaments were administered via the tail vein (dissolved in normal saline by adjusting pH or directly dissolved in normal saline) 2 times in a row. 15 minutes after the last administration to the mice, a 5% phenol red solution in normal saline (0.5g/kg) was subcutaneously injected. After 30 minutes, the mice were sacrificed and a section of the trachea was cut from below the thyroid cartilage to the trachea branch. The section was placed in a test tube containing 1 mL of normal saline, shaken and soaked for 30 minutes, and then centrifuged for 10 minutes (3000 r/min). The supernatant was transferred to another test tube, 0.1 mL of 1M NaOH solution was added, and shaken uniformly for a colorimetric measurement at 546nm. The effects of each group on the tracheal phenol red secretion in mice were statistically compared, and the experimental results obtained are shown in Table 5 below. Here, the medicament used for the Comparative Example group was the 4-[(2-amino-3,5-dibromobenzyl)amino]adamantan-1-ol hydrochloride (racemic) prepared in Comparative Example 1. Table 5. Effects on tracheal phenol red secretion in mice (x ± s)"}, "[2]": {"tested_on": "expectoration amount by rat capillary tube expectoration", "assay": "rat capillary sputum excretion test", "format": "in vivo, SD rats", "settings": "length of liquid in capillary tube within 90 minutes; 15 mg/kg in terms of free base via tail vein, 30 minutes after administration; n=10; vehicle control 22.7±4.41; hydrochloride, 15 mg/kg", "procedure": "180-220g SD rats of both sexes were used and divided into random groups, with 10 rats in each group, namely a vehicle control group, a Formula I compound group (15 mg/kg, in terms of free base), a Formula V compound group (15 mg/kg, in terms of free base), a Comparative Example group (15 mg/kg, in terms of free base) and ambroxol hydrochloride (15 mg/kg, in terms of free base). The rats were fasted and restrained from water for 12 hours before testing the amount of sputum excretion, and administered the respective medicaments via the tail vein (dissolved in normal saline by adjusting pH or directly dissolved in normal saline). 30 minutes after the administration, they were anesthetized by intraperitoneally injecting 1g/kg of a urethane solution in saline, fixed in supine position, and the trachea was separated after cutting through neck skin. A small hole was pierced by using a syringe needle between the two cartilage rings on the lower edge of the thyroid cartilage, and a capillary tube (with an inner diameter of 0.8mm, and a length of 10cm) was inserted centripetally into the trachea. Sputum was collected while adjusting the angle between the capillary tube and the trachea, and the total number of the length of liquids in the capillary tube (mm) was used to evaluate the expectoration effect. The amount of expectoration of the rats within 90 minutes was recorded. Here, the medicament used for the Comparative Example group was the 4-[(2-amino-3,5-dibromobenzyl)amino]adamantan-1-ol hydrochloride (racemic) prepared in Comparative Example 1. Table 4. Results of the effect on the expectoration amount by rat capillary tube expectoration"}, "[3]": {"tested_on": "acute lung injury in mice induced by oleic acid", "assay": "acute lung injury test in mouse (oleic acid-induced, histological grading of lung pathology)", "format": "in vivo, KM mice", "procedure": "KM mice, weighing 18-22g, with all 66 being males, were used and randomly grouped into a normal control group, a model control group, a Formula I compound group (40 mg/kg, in terms of free base), a Formula V compound group (40 mg/kg, in terms of free base), a Comparative Example group (40 mg/kg, in terms of free base), and an ambroxol hydrochloride group (40 mg/kg, in terms of free base), 11 animals in each group, and each group was administered intravenously (dissolved in normal saline by adjusting pH or directly dissolved in normal saline) once a day for 4 times, while the model control group and the normal control group were given an equivalent amount of normal saline. 30 minutes after the last administration, except for the normal control group, all other mice were administered 300 mg/kg oleic acid intravenously (prepared into the desired concentration with sterile saline containing 0.1% […] immediately before use), and the vehicle control group was given an equivalent volume of 0.1% BSA saline. The mice were sacrificed 4 hours after the last administration, and the right lobes of the lungs were removed and fixed in a 10% formaldehyde solution. After dehydration, embedding in paraffin, dissection, and staining with HE, they were observed under a microscope for pathological changes of the lung tissues. Here, the medicament used for the Comparative Example group was the 4-[(2-amino-3,5-dibromobenzyl)amino]adamantan-1-ol hydrochloride (racemic) prepared in Comparative Example 1. Table 1. Criteria for histological grading of lung injury\nThe above indicators are multiplied by different weighting numbers depending on the significance of the pathology (alveolar wall thickening × 1, inflammatory cell infiltration × 1, lung tissue necrosis × 3), and finally added up to obtain an overall lung pathology score. Table 2. Test results of lung pathologies of each group"}, "[4]": {"tested_on": "ammonia-induced coughing response in mice", "assay": "cough response of mice induced by ammonia water", "format": "in vivo, KM mice", "procedure": "50 KM mice, weighing 18-22g, of both sexes were used and randomly divided into 5 groups, a model control group, a Formula I compound group (15 mg/kg, in terms of free base), a Formula V compound group (15 mg/kg, in terms of free base), a Comparative Example group (15 mg/kg, in terms of free base), and an ambroxol hydrochloride group (15 mg/kg, in terms of free base), 10 animals in each group, and were administered intravenously (dissolved in normal saline by adjusting pH or directly dissolved in normal saline). 30 minutes after the administration, the mice were put in an inverted beaker with a volume of 500ml and a cotton ball inside. Timing was started once 0.2ml of concentrated ammonia/mouse was added onto the cotton ball. The number of coughs of each animal within 3 minutes was observed and recorded. Here, the medicament used for the Comparative Example group was the 4-[(2-amino-3,5-dibromobenzyl)amino]adamantan-1-ol hydrochloride (racemic) prepared in Comparative Example 1. Table 3. Effect on ammonia-induced coughing response in mice (x ± s, n=10)"}, "[5]": {"settings": "number of mice (11 per group) at score 3 (Moderate), 40 mg/kg in terms of free base, intravenously once a day for 4 times, oleic acid 300 mg/kg i.v."}, "[6]": {"settings": "number of mice (11 per group) at score 4 (Severe), 40 mg/kg in terms of free base, intravenously once a day for 4 times, oleic acid 300 mg/kg i.v."}},
  "note": "Structures can show the parent of a compound that is named as a salt. Marks after values point to notes of the source that are not given here.",
  "data": [
    {"smiles": "Nc1c(Br)cc(Br)cc1CN[C@@H]1[C@@H]2C[C@@H]3C[C@H]1C[C@@](O)(C3)C2", "note": "[Compound of Formula V, trans-4-[(2-amino-3,5-dibromobenzyl)amino]adamantan-1-ol hydrochloride]", "values": [
      {"measurement": "Phenol red secretion (OD number)", "setting": "[1]", "result": "0.278±0.054", "unit": "OD number"},
      {"measurement": "Expectoration amount in 90min (mm)", "setting": "[2]", "result": "45.1±5.39", "unit": "mm"},
      {"measurement": "Overall lung pathology score", "setting": "[3]; group sum, weighted (alveolar wall thickening x 1, inflammatory cell infiltration x 1, lung tissue necrosis x 3), 40 mg/kg free base i.v. once a day for 4 times, model control 81, normal control 21, hydrochloride, 40 mg/kg", "result": "24^**▲"},
      {"measurement": "Alveolar wall thickening Level 0", "setting": "[3]; number of mice (11 per group) at score 0 (No pathological change), 40 mg/kg in terms of free base, intravenously once a day for 4 times, oleic acid 300 mg/kg i.v.", "result": 1},
      {"measurement": "Inflammatory cell infiltration Level 0", "setting": "[3]; number of mice (11 per group) at score 0 (No pathological change), 40 mg/kg in terms of free base, intravenously once a day for 4 times, oleic acid 300 mg/kg i.v., hydrochloride", "result": 2},
      {"measurement": "Lung tissue necrosis Level 1", "setting": "[3]; number of mice (11 per group) at score 1 (Occasional), 40 mg/kg in terms of free base, intravenously once a day for 4 times, oleic acid 300 mg/kg i.v.", "result": 0},
      {"measurement": "Lung tissue necrosis Level 2", "setting": "[3]; number of mice (11 per group) at score 2 (Mild), 40 mg/kg in terms of free base, intravenously once a day for 4 times, oleic acid 300 mg/kg i.v.", "result": 0},
      {"measurement": "Inflammatory cell infiltration Level 2", "setting": "[3]; number of mice (11 per group) at score 2 (Mild), 40 mg/kg in terms of free base, intravenously once a day for 4 times, oleic acid 300 mg/kg i.v., hydrochloride", "result": 2},
      {"measurement": "Inflammatory cell infiltration Level 3", "setting": "[3]; [5]", "result": 0},
      {"measurement": "Lung tissue necrosis Level 3", "setting": "[3]; [5]", "result": 0},
      {"measurement": "Alveolar wall thickening Level 3", "setting": "[3]; number of mice (11 per group) at score 3 (Moderate), 40 mg/kg in terms of free base, intravenously once a day for 4 times, oleic acid 300 mg/kg i.v., hydrochloride", "result": 0},
      {"measurement": "Alveolar wall thickening Level 4", "setting": "[3]; [6]", "result": 0},
      {"measurement": "Inflammatory cell infiltration Level 4", "setting": "[3]; [6]", "result": 0},
      {"measurement": "Lung tissue necrosis Level 4", "setting": "[3]; [6]", "result": 0},
      {"measurement": "reduction of the number of coughs", "setting": "[4]; compared with the model control group (P<0.05 or P<0.01), 15 mg/kg free base i.v.", "result": "significantly reduce the number of coughs"},
      {"measurement": "Number of coughs (times)", "setting": "[4]; within 3 minutes after concentrated ammonia, 15 mg/kg in terms of free base i.v., 30 minutes after administration, x ± s, n=10, model control 41.7±8.76, hydrochloride, 15 mg/kg", "result": "19.5±6.50", "unit": "times"}
    ]}
  ]
}
